# Source: US11879021B2, “Cyclic peptides and uses thereof” (UNIVERSITÉ DE MONTRÉAL, priority 2016, dated 2024)
# Experiments:
# [1] = tested on: R-FSL-1 (TLR2 agonist)-induced NO production in RAW macrophage cell line; assay: Nitric oxide (NO) production induced by TLR2 agonist R-FSL-1 in RAW macrophage cell line; format: cell-based, murine; settings: RAW macrophages
# Experimental: The murine RAW1 macrophage cell line was obtained from American Type Cell Collection (ATCC #TIB-71), seeded at 1.5×10^5 cells/well in Dulbecco's Modified Eagle's medium (DMEM) containing 100 U/mL of penicillin (Pen) and 100 μg/mL of streptomycin (Strep) on a 48-well plate (Costar® #3548), and incubated at 37° C. with 5% CO2. After 2 h, the cell culture medium of adhered cells was removed and replaced by DMEM-Pen/Strep medium containing 0.2% of bovine serum albumin (BSA), and supplemented with the cyclic peptides at a concentration of 10^−6 or 10^−7 M. MPE-001 (DBG178, His-D-Trp-Ala-AzaTyr-D-Phe-Lys-NH2) and [azaLys^6]-GHRP-6 (His-D-Trp-Ala-Trp-D-Phe-azaLys-NH2, negative control) at 10^−6 M were used as positive and negative controls, respectively. After 1 h pre-incubation, the cells were stimulated overnight using the TLR2 ligand fibroblast-stimulating lipopeptide (R-FSL-1) (Invivogen® #L7022) at a concentration of 300 ng/mL. Supernatants were then collected for nitrite production analysis by fluorescence using 2,3-diaminonaphthalene (DAN). Briefly, 25 μL of sample was incubated with 0.5 μg of DAN in a 100 μL final volume of phosphate buffer (50 mM, pH 7.5) at room temperature in the dark. After 15 min, the reaction was stopped with 20 μL of NaOH (2.8N) and the plate was read using a fluorescence plate reader (TECAN® Safire, λexc 365 nm and λem 430 nm).
# [2] = tested on: R-FSL-1 (TLR2 agonist)-induced TNF-α and CCL-2 release in RAW macrophages; assay: R-FSL-1-induced TNF-α and CCL-2 release in RAW macrophages; format: cell-based, murine; settings: 10^−7 M
# Experimental: The murine RAW1 macrophage cell line was obtained from American Type Cell Collection (ATCC #TIB-71). RAW cells were seeded at 150,000 cells per well in a 48-well plate (Costar® #3548) and weaned overnight in medium (DMEM supplemented 1% penicillin/streptomycin) at 37° C. with 5% CO2. The next day, the medium was changed to DMEM-1% penicillin/streptomycin supplemented with 0.2% BSA. The cells were first pretreated with 300 μL of azapeptides DBG178 (MPE-133, reference standard), 25 (MPE-210), 26 (MPE-266), 28 (MPE-268), 32 (MPE-267), 33 (MPE-298), 38 (MPE-308), 35 (MPE-300), 39 (MPE-310) and azaLys6-GHRP-6 (as negative control) at 10^-7M for 30 min. Then, […] of the TLR2 agonist, R-FSL-1 (300 ng/ml final concentration, R-FSL-1, Invivogen® #L7022) was added for 4 h period of incubation at 37° C. with 5% CO2. At the end of the incubation period, media were collected and stored at −80° C. for TNF-α and CCL-2 assays using ELISA kits (EbioScience® #88-7391 and #88-7324). Results were analyzed by analysis of variance (ANOVA) with post hoc comparisons using Dunnett's test with a statistical software package (Graph Pad Prism® version 7.0). P<0.05 was considered statistically significant.
# [3] = tested on: R-FSL-1-induced IL-1β and TNF-α secretion in bone marrow-derived macrophages; assay: IL-1β and TNF-α secretion in bone marrow-derived macrophages (BMDM) stimulated with R-FSL-1; format: cell-based, mice; settings: murine BMDM primed with LPS, 10^−6 to 10^−11 M
# Text: Bone marrow-derived macrophages isolation and purification. Bone marrow-derived macrophages (BMDM) were isolated from the tibia and femur of 4-month-old C57Bl/6 mice. Mice were euthanized in a CO2 chamber individually. Tibia and femur were dissected from dead mice after removing the skin and the muscles and stored in cold DMEM before use. The bones are placed in Petri dishes containing sterile PBS and immersed in ice. In a laminar flow of culture, bones are immersed in 70% ethanol for one minute, and then rinsed in sterile PBS. Bones were cut in 2 pieces using sterile forceps and scissors and put in pierced 0.6 mL tubes which were put in 2 mL centrifuge tubes containing 200 μL of DMEM. After 1 min of centrifugation at 6500 RPM, pellets of bone marrow cells were gently resuspended and pooled in a 50 mL tube. Cells were counted and monocytes were purified from the bone marrow cells using the EasySep™ Mouse Monocyte Isolation Kit (StemCell Technologies, #19861) according to the manufacturer instructions. […] Statistical significance of data was analyzed by analysis of variance (ANOVA) with post-hoc comparisons using Dunnett's test with statistical software package (Graph Pad Prism version 7.0). […]
# apoE−/− mice = assay: Murine atherosclerosis model (apoE−/− mice on atherogenic diet), aortic lesions; format: in vivo; settings: 300 nmol/kg daily s.c. for 8 weeks
# Experimental: Experiments were performed in male apoE−/− mice fed an atherogenic diet (D12108, cholate-free AIN-76A semi-purified diet, Research Diets Inc., New Brunswick, NJ) from 4 weeks of age. MPE-298 (300 nmol/kg), MPE-267 (300 nmol/kg) or vehicle (0.9% NaCl), were administered by daily by subcutaneous (s.c.) injections for 8 weeks, from 12 weeks of age, as shown schematically in FIG. 8A.
# [4] = tested on: R-FSL-1 (TLR2 agonist)-induced TNF-α and CCL-2 release in RAW macrophages; assay: R-FSL-1-induced TNF-α and CCL-2 release in RAW macrophages; format: cell-based, murine; settings: 10^−7 M; remark: listed apart in the source
structure (smiles),measurement,setting,value
C=CCN1CC#CCN(NC(=O)[C@H](C)N)C(=O)N[C@H](Cc2c[nH]c3ccccc23)C(=O)N[C@@H](C)C(=O)N[C@@H](Cc2c[nH]c3ccccc23)C(=O)N[C@H](Cc2ccccc2)C(=O)N[C@H](C(N)=O)CCCC1 [MPE-298],suppression of NO production compared with positive control MPE-001 at the same concentration,"[1]; 10^−7 M, FIG. 4F",more important
same,suppression of R-FSL-1-mediated NO production at 10^−7 M,"[1]; 10^−7 M, further analyses, FIG. 4F",significant suppression
same,suppression of R-FSL-1-mediated NO production,"[1]; at the concentration tested (10^−6 or 10^−7 M), FIGS. 4A to 4F",significant suppression
same,effect on R-FSL-1-induced CCL-2 release,[2],significant inhibitory effect
same,effect on R-FSL-1-induced TNF-α release,[2],significant inhibitory effect
same,secretion of IL-1β induced by R-FSL-1,[3],able to inhibit
same,secretion of TNF-α induced by R-FSL-1,[3],able to inhibit
same,reduction of aortic lesions relative to 0.9% NaCl (vehicle),apoE−/− mice,42%
same,inhibitory effect on R-FSL-1-induced CCL-2 release compared with reference standard DBG178 (MPE-001),[4],significantly higher
